Results as given in ChEMBL document CHEMBL4507268 (2021).

Key:
Conditions in all cases: Compound concentration 1000.0 nM
[1] = molecular target: Phosphatidylinositol 5-phosphate 4-kinase type-2 gamma (Homo sapiens) (UniProt Q8TBX8)
[2] = molecular target: Angiopoietin-1 receptor (Homo sapiens) (UniProt Q02763)
[3] = molecular target: MAP kinase-activated protein kinase 2 (Homo sapiens) (UniProt P49137)
[4] = test system: Fibroblast growth factor receptor 3 (Homo sapiens), P22607 [G697C]
[5] = molecular target: T1, Ephrin type-B receptor 1 (Homo sapiens) (UniProt P54762)
T1 sequence (whole entry): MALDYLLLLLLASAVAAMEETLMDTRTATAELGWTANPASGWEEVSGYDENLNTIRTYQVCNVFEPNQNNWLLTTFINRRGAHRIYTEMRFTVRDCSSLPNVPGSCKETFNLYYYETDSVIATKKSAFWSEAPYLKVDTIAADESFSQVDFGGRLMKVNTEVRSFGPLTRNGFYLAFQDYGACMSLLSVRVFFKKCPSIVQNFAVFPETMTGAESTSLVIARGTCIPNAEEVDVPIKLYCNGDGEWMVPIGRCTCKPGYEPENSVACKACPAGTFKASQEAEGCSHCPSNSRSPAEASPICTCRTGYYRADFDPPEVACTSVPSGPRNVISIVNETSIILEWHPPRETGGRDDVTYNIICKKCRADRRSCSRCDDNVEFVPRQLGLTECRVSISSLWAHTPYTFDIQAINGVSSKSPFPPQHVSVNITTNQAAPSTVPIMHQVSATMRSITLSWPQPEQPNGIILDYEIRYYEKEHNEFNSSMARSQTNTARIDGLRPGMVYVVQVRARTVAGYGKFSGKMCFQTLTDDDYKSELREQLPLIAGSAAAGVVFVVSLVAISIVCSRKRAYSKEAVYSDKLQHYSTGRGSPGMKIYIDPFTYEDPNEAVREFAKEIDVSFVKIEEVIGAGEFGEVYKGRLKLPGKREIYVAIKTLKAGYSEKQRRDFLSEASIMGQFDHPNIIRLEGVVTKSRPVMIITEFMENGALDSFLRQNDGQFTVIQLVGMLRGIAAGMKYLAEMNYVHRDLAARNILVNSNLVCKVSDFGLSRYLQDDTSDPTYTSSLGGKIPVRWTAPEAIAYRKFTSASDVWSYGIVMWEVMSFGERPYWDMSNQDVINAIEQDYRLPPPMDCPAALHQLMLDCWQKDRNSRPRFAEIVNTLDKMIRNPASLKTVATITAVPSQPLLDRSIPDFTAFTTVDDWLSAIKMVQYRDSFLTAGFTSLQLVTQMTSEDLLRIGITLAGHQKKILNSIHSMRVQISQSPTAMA

[6] = molecular target: STE20/SPS1-related proline-alanine-rich protein kinase (Homo sapiens) (UniProt Q9UEW8)
[7] = molecular target: Tyrosine-protein kinase Fgr (Homo sapiens) (UniProt P09769)
Tyrosine-protein kinase Fgr (Homo sapiens), sequence (P09769 2-529 limits assumed): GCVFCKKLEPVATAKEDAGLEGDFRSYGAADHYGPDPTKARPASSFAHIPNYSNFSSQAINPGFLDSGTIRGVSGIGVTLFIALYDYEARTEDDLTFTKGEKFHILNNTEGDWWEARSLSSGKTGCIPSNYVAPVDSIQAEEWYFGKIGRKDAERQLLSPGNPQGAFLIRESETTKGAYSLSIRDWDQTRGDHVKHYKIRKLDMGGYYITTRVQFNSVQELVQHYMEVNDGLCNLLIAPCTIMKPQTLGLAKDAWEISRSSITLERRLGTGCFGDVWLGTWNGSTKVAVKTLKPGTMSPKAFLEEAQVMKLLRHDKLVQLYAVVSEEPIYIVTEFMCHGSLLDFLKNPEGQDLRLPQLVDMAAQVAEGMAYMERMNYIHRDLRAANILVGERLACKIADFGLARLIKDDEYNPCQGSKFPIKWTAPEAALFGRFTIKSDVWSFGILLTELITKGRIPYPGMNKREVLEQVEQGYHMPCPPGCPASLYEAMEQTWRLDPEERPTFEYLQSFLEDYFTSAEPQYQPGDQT

[8] = molecular target: Serine/threonine-protein kinase TNNI3K (Homo sapiens) (UniProt Q59H18)
[9] = molecular target: T2, Phosphorylase b kinase regulatory subunit alpha, liver isoform (Homo sapiens) (UniProt P46019)
T2 sequence (whole entry): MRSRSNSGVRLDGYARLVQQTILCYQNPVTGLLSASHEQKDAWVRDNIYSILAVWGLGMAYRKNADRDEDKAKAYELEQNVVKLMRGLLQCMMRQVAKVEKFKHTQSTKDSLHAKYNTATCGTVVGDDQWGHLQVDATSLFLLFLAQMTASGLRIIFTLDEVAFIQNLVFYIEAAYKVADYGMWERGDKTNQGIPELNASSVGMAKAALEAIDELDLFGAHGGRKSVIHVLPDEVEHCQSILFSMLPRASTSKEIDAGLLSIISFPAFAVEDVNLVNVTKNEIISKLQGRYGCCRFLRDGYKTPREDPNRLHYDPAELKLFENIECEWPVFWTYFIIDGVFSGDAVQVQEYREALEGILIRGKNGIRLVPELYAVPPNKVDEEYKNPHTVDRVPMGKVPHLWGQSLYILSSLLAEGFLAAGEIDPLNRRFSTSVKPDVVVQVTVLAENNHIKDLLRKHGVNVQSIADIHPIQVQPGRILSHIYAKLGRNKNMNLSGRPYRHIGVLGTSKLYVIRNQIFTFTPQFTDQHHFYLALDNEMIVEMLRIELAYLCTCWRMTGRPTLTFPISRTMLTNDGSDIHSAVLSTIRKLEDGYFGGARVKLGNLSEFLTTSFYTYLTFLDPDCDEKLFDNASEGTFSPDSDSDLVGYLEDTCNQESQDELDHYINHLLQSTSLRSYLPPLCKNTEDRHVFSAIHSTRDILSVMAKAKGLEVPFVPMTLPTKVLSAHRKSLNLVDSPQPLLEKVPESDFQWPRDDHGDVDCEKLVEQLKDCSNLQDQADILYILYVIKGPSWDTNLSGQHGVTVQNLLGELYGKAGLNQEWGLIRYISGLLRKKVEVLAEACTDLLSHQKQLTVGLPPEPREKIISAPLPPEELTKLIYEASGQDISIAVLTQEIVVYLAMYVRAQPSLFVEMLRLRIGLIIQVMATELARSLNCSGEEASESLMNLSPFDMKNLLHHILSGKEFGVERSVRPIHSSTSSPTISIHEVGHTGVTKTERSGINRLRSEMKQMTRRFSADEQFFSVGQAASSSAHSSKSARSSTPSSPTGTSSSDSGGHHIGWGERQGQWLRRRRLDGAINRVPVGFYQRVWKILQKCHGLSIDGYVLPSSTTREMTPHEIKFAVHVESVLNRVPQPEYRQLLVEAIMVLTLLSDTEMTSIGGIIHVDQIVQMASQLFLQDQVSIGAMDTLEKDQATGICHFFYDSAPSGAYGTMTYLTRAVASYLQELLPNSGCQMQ

[10] = molecular target: Cyclin-dependent kinase 13 (Homo sapiens) (UniProt Q14004)
Cyclin-dependent kinase 13 (Homo sapiens), sequence (Q14004 whole entry, looked up): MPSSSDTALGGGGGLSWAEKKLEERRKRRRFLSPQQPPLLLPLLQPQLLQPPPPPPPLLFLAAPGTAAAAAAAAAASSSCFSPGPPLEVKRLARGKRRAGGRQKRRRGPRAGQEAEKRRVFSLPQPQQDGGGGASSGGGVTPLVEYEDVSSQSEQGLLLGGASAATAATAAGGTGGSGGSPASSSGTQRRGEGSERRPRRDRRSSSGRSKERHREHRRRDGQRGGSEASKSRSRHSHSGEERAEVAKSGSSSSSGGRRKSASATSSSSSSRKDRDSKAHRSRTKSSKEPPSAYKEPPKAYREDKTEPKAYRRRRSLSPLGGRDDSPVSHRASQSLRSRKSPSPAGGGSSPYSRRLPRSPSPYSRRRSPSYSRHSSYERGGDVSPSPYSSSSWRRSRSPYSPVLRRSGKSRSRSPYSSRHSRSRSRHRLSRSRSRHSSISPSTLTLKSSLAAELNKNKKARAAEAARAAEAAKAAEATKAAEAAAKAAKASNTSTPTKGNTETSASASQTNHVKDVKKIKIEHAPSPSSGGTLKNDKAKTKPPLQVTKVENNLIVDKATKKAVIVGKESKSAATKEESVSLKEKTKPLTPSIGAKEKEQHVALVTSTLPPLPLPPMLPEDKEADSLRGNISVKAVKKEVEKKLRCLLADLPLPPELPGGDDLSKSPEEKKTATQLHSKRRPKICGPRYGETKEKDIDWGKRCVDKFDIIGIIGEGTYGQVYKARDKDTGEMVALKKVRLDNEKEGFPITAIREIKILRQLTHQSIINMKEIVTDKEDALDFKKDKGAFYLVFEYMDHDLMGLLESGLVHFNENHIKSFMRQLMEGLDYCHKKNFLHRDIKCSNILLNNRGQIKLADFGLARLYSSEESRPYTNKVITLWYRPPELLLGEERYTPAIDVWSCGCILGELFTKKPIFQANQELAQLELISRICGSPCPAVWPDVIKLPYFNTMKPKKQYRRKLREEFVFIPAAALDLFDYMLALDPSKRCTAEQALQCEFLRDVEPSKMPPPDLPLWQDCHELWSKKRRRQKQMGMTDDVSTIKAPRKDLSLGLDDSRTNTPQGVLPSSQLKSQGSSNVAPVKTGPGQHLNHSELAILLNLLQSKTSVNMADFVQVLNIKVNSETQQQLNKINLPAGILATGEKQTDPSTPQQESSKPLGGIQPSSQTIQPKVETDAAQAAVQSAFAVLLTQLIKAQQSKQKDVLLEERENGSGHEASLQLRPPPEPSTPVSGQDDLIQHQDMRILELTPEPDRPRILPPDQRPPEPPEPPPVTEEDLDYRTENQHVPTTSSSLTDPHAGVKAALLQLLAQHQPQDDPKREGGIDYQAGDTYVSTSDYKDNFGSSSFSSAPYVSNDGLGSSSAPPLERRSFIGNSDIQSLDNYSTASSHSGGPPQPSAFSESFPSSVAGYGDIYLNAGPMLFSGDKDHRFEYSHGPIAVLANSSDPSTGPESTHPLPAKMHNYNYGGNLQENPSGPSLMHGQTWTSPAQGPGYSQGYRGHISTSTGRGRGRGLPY

Measured: residual activity

Fibroblast growth factor receptor 3 (Homo sapiens), P22607 [G697C], sequence (P22607 whole entry G697C): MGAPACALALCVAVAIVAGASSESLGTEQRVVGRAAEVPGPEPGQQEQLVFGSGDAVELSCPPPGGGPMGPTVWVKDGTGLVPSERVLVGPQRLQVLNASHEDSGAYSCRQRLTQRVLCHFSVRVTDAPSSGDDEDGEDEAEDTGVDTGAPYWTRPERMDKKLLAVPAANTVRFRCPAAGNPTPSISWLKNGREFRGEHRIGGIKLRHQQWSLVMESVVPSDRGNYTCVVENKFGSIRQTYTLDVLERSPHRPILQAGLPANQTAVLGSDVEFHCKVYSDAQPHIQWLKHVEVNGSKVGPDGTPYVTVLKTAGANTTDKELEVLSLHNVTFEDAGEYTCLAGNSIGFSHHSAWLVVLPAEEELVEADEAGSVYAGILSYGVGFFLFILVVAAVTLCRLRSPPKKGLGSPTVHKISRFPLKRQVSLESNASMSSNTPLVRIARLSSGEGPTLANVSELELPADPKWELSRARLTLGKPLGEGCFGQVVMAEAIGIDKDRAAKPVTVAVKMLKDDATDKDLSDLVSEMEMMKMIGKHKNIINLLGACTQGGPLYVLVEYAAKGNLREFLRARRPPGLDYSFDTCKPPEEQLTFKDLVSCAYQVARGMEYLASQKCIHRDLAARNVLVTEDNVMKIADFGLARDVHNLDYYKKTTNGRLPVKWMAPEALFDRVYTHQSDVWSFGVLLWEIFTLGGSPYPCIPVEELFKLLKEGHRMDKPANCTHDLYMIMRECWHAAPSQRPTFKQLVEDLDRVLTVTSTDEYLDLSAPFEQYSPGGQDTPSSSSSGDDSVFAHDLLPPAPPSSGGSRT
Phosphatidylinositol 5-phosphate 4-kinase type-2 gamma (Homo sapiens), sequence (Q8TBX8 whole entry): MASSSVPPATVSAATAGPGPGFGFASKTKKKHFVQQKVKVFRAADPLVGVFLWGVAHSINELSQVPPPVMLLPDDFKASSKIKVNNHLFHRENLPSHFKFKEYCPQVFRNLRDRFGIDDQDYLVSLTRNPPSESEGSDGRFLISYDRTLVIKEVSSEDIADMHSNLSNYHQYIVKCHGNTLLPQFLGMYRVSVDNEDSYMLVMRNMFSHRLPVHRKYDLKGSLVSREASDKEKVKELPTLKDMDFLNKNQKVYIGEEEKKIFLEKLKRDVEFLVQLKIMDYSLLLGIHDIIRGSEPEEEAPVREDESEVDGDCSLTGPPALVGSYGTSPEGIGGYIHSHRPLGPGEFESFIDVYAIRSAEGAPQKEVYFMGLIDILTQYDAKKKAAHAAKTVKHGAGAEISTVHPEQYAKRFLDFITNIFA
MAP kinase-activated protein kinase 2 (Homo sapiens), sequence (P49137 whole entry, looked up): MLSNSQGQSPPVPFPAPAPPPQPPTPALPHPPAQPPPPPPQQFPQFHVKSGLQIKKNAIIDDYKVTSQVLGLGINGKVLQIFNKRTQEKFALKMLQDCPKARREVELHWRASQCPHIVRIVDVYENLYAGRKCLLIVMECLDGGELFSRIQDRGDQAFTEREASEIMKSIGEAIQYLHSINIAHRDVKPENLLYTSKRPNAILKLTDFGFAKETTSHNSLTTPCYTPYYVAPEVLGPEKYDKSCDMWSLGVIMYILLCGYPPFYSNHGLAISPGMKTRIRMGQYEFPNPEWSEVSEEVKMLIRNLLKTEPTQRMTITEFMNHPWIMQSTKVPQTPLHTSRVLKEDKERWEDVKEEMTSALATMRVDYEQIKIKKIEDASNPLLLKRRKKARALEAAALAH
Angiopoietin-1 receptor (Homo sapiens), sequence (Q02763 whole entry): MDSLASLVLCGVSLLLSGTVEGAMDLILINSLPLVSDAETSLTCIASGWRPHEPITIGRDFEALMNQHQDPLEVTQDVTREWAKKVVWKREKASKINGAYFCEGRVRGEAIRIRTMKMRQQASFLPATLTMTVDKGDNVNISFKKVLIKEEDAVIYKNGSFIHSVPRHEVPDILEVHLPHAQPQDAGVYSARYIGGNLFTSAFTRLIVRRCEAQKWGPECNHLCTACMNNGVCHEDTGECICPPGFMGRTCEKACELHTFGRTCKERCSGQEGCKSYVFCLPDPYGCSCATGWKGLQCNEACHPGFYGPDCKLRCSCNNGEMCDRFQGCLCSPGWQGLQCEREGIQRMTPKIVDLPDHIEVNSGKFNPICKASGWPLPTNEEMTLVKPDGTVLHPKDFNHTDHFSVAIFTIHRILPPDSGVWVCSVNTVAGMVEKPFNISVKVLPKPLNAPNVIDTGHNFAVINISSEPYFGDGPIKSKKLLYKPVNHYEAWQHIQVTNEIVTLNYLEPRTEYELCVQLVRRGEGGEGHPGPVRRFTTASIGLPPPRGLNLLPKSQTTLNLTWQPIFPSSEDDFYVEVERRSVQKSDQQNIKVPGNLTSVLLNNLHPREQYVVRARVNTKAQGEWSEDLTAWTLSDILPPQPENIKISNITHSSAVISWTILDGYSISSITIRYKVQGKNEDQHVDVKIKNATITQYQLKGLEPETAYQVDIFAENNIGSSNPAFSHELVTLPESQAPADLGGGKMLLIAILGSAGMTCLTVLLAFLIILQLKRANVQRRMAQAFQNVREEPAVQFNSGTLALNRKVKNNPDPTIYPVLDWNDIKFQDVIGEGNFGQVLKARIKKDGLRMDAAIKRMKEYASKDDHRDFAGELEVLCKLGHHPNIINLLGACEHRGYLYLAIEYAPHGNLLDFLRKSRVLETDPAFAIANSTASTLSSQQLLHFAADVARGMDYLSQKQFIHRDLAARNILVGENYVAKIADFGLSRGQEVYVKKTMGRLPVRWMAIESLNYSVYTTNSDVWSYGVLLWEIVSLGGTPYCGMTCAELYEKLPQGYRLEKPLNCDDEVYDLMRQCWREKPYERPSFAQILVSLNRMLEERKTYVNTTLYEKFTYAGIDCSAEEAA

Cc1nc(C2CCN(C(=O)c3ccc(OC(F)(F)F)cc3N)CC2)c2ncc(N3CCN(C)CC3)cc2n1 [BAY-693]
inactive: [1] 100% | [2] 81% | [3] 100% | [4] 100% | [5] 95% | [6] 100% | [7] 100% | [8] 100% | [9] 100% | [10] 88%

CN1CCN(c2cnc3c(C4CCN(C(=O)c5ccc(OC(F)(F)F)cc5N)CC4)ncnc3c2)CC1 [BAY-885]
inactive: [1] 100% | [2] 74% | [3] 100% | [4] 100% | [5] 100% | [6] 81% | [7] 100% | [8] 100% | [9] 100% | [10] 62%
